Legend:
[1] = tested on: blood vessels of unstimulated CAM's; assay: In ovo chick CAM angiogenesis assay, unstimulated CAM's; assay type: in vivo; conditions: absence of growth factor
Source text: (§1) Ten day old embryonated chicken eggs (McIntyre Poultry; Ramona Calif.) were candled to illuminate blood vessels under the shell and an area with a minimum of small blood vessels is identified. The CAM was dropped away from the eggshell in this area by grinding a small hole in the mineralized shell and applying pressure to the underlying inner shell membrane. This procedure caused an air pocket to shift from the wide end of the egg to the identified area and forcing a circular region of the CAM approximately 2 cm in diameter to drop away from the shell. […]
(§2) Fibronectin, vitronectin and fibronectin fragments (59 pmol in a final volume of 25 μl) were applied to stimulated or unstimulated CAM's. […] Blood vessel branch points in the 5 mm filter disk area were counted at 30× magnification in a blinded fashion as a size-independent quantitative indicator of vascular sprouting in response to growth factors. […] Thus, counting of blood vessel branch points is a useful quantitative means of obtaining an angiogenic index (Brooks et al., In “Methods in Molecular Biology” (Humana Press 1999). At least ten embryos were used per treatment group. Each experiment was performed a minimum of three times.
(§3) Data was evaluated in terms of average number of blood vessel branch points per treatment group +/−standard error of measurement . […]

[2] = tested on: VEGF-induced angiogenesis on the chick CAM; assay: In ovo chick CAM angiogenesis assay, VEGF stimulated; assay type: in vivo; conditions: for effect of applied matrix protein on the angiogenic effect of VEGF: matrix protein applied to VEGF stimulated CAM's
Source text: (§4) Ten day old embryonated chicken eggs (McIntyre Poultry; Ramona Calif.) were candled to illuminate blood vessels under the shell and an area with a minimum of small blood vessels is identified. The CAM was dropped away from the eggshell in this area by grinding a small hole in the mineralized shell and applying pressure to the underlying inner shell membrane. This procedure caused an air pocket to shift from the wide end of the egg to the identified area and forcing a circular region of the CAM approximately 2 cm in diameter to drop away from the shell. A window was cut in the egg shell and a cortisone acetate pre-treated filter disc 5 mm in diameter that had been saturated in 1 μg/ml bFGF, VEGF, TNFα, IL-8 (Genzyme, Inc.; Cambridge Mass.) or saline was placed on the CAM. The window in the shell was sealed with adhesive tape and the egg was incubated for four days.
(§5) Anti-fibronectin antibodies (25 μg in 25 μl) also were applied topically to the CAM.
(§6) Fibronectin, vitronectin and fibronectin fragments (59 pmol in a final volume of 25 μl) were applied to stimulated or unstimulated CAM's. Peptide or small molecule antagonists of α5β1 (at a final serum concentration of 0–25 μM) also were injected intravenously into the chick circulation 24 hr later. CAM's were harvested on the fourth day of stimulation. Blood vessel branch points in the 5 mm filter disk area were counted at 30× magnification in a blinded fashion as a size-independent quantitative indicator of vascular sprouting in response to growth factors. Angiogenesis is characterized by the sprouting of new vessels in response to growth factors. Thus, counting of blood vessel branch points is a useful quantitative means of obtaining an angiogenic index (Brooks et al., In “Methods in Molecular Biology” (Humana Press 1999). At least ten embryos were used per treatment group. Each experiment was performed a minimum of three times.
(§7) Data was evaluated in terms of average number of blood vessel branch points per treatment group +/−standard error of measurement . Statistical analyses were performed using Student's t-test. Representative CAMS from each treatment group were photographed at 10X magnification. In some cases, CAM tissue excised from the egg was frozen in OCT (Baxter; McGraw Park Ill.) in liquid nitrogen, cut into 5 μm sections, air dried and processed for immunohistochemical analysis as described in Example I, except without fixation.

[3] = tested on: bFGF-induced angiogenesis on the chick CAM; assay: In ovo chick CAM angiogenesis assay, bFGF stimulated; assay type: in vivo
Source text: as §4, §5, §6, §7

HUVEC's = assay: Cell migration assay on fibronectin; assay type: cell-based, human
Experimental: The lower side of 8 μm pore transwell inserts (Costar, Inc.) were coated with 2 μg/ml of fibronectin, collagen (Collaborative Biomedical Products; Bedford Mass.) or no protein for 1 hr and were blocked with 2% BSA in PBS for 1 hr. The inserts then were placed into 24 well culture dishes containing 500 μl migration buffer in the lower chamber. Twenty-five thousand HUVEC's in 50 μl of migration buffer (HEPES buffered M199 medium containing 1% BSA, 2 mM MgCl2, 2 mM CaCl2 and 0.2 mM MnCl2) were added to the upper chamber of duplicate inserts containing 50 μl of a solution of 50 μg/ml of anti-α5β1 function blocking antibody (NKI-SAM-1, JBS5 or IIA1), 50 μg/ml of anti-α5β1 non-function blocking antibody (HA5 or VC5), or 50 μg/ml of LM609 (an anti-αVβ3 function blocking antibody) in migration buffer, or migration buffer alone.
Cells were allowed to migrate from the upper to the lower chamber for 4 hr at 37° C. Nonmigratory cells were removed from the upper surface by wiping the upper side with an absorbant tip, and cells that had migrated to the lower side of the transwell insert were fixed for 15 min with 3.7% paraformaldehyde in PBS, then stained with a 2% crystal violet solution. After extensive water washing to remove excess crystal violet, the number of cells that had migrated were counted in three representative high power (200×) fields per insert. […]

[4] = tested on: chick embryo fibroblasts (CEF's); assay: Cell adhesion assay, adhesion to fibronectin; assay type: cell-based
Source text: (§8) HT29 integrin α5β1^+ cells, integrin α5β1^− colon carcinoma cells (Varner et al., Mol. Biol. Cell 6:725–740 (1995)), and chick embryo fibroblasts (CEF's) were maintained in DMEM high glucose supplemented with 10% fetal bovine serum (FBS) and gentamycin. Human umbilical vein endothelial cells (HUVEC's) were maintained in M199 medium containing sodium bicarbonate, HEPES, heparin, endothelial cell growth supplement, 20% FBS and gentamycin. Culture media and reagents were from Irvine Scientific (Irvine, Calif.).
(§9) The wells of 48 well culture dishes (Costar, Inc.) were coated with 1 μg/ml vitronectin, 2 μg/ml fibronectin (chick embryo fibroblasts and HUVEC's) or 10 μg/ml fibronectin (HT29-α5^+ cells) for 1 hr at 37° C., then blocked with 2% heat denatured BSA in PBS for 1 hr. Fifty thousand cells in 250 μl of adhesion buffer were added to triplicate wells containing 250 μl of a solution of 50 μg/ml of an anti-α5β1 function blocking antibody (NKI-SAM-1, JBS5 or IIA1), 50 μg/ml of an anti-α5β1 non-function blocking antibody (HA5 or VC5; Pharmingen, Inc.; San Diego Calif.), 10 μM cyclic peptides (Koivunen et al., J. Biol. Chem. 268:20205–20210 (1993); Koivunen et al., J. Cell Biol. 124:373380 (1994)), 0–10 μM SJ749 ((S)-2-{(2,4,6-trimethylphenyl)sulfonyl}amino-3{7-benzyloxycarbonyl-8-(2-pyridinylaminomethyl)-1-oxa-2,7-diazaspiro-{4,4}-non-2-en-3-yl}carbonylamino}propionic acid)), 50 μg/ml of LM609, an anti-αVβ3 function blocking antibody, 50 μg/ml P4C10, an anti-β1 function blocking antibody, 50 μg/ml of an anti-fibronectin cell binding domain monoclonal antibody or 50 μg/ml of an anti-fibronectin N-terminus monoclonal antibody in adhesion buffer (HEPES buffered Hanks balanced salt solution, HBSS, containing 1% BSA, 2 mM MgCl2, 2 mM CaCl2 and 0.2 mM MnCl2).
(§10) Cells were allowed to adhere to dishes for 20 min at 37° C. Nonadherent cells were removed by washing each well four times with 500 μl of warm adhesion buffer. Adherent cells were then fixed for 15 min with 3.7% paraformaldehyde in PBS and stained with a 2% crystal violet solution. After extensive water washing to remove excess crystal violet, plates were dried overnight. Crystal violet was extracted by incubation for 15 min in 10% acetic acid and absorbance at 562 nm determined as an indicator of number of cells bound. Each experiment was performed in triplicate, with triplicate samples per condition.

[5] = tested on: Human umbilical vein endothelial cells (HUVEC's); assay: Cell adhesion assay, adhesion to fibronectin; assay type: cell-based
Source text: as §8, §9, §10

[6] = tested on: growth factor-induced angiogenesis in chick embryos; assay: Chick CAM angiogenesis assay, systemic administration, growth factor not specified; assay type: in vivo; conditions: chick embryo, read-out: amount inhibiting angiogenesis by 50% (converted)
Source text: as §1, §2, §3

α5^+ HT29 cells = assay: Cell adhesion assay, adhesion to fibronectin; assay type: cell-based, human
Source text: as §8, §9
Cells were allowed to adhere to dishes for 20 min at 37° C. Nonadherent cells were removed by washing each well four times with 500 μl of warm adhesion buffer. […] Crystal violet was extracted by incubation for 15 min in 10% acetic acid and absorbance at 562 nm determined as an indicator of number of cells bound. […]

[7] = tested on: HT29 colon carcinoma cells lacking α5β1 expression; assay: Chick CAM tumor assay, HT29; assay type: in vivo; conditions: HT29 tumors on CAM
Experimental: The chick CAM tumor assay was performed by placing ten million tumor cells on the surface of a CAM, and culturing the cells for one week. The resulting tumors were excised and cut into 50 mg fragments. […] Forty-eight hours later, CAM's were excised from the egg and the number of blood vessels entering the tumors were counted (as vessel branch points).
Data was presented as mean blood vessel number per treatment group (+/− standard error of measurement). Each treatment group incorporated at least ten tumors per experiment. Representative tumors were photographed at 10× magnification. Tumors were excised from the egg and tumor weights were determined for each tumor Data was presented as mean tumor weight per treatment group (+/− standard error of measurement). Statistical analyses were performed using Student's t-test.
HT29 colon carcinoma cells lacking α5β1 expression were grown on the CAM's of 10-day old embryos. These tumor cells secrete several angiogenic growth factors, including VEGF, TGFα, TGFβ, TNFα, and IL-8 (Anzano et al., Cancer Res. 49:2898–2904 (1989); Varner et. al., supra, 1995; Ellis et al., J. Biol. Chem. 273:1052–1057 (1998)). Integrin α5β1 negative tumor cells were used to distinguish the potential anti-tumor effects from anti-vasculature effects of integrin α5β1 antagonists.

[8] = tested on: α5^+ HT29 colon carcinoma cells, CEF's and HUVEC's; assay: Cell adhesion assay, attachment to vitronectin; assay type: cell-based; conditions: vitronectin coating
Source text: as §8
The wells of 48 well culture dishes (Costar, Inc.) were coated with 1 μg/ml vitronectin, 2 μg/ml fibronectin (chick embryo fibroblasts and HUVEC's) or 10 μg/ml fibronectin (HT29-α5^+ cells) for 1 hr at 37° C., then blocked with 2% heat denatured BSA in PBS for 1 hr. […]
Cells were allowed to adhere to dishes for 20 min at 37° C. […] Crystal violet was extracted by incubation for 15 min in 10% acetic acid and absorbance at 562 nm determined as an indicator of number of cells bound. […]

[9] = matrix protein applied to bFGF stimulated CAM's

Molecule: fibronectin: intact human fibronectin
- effect on blood vessels / angiogenesis of unstimulated CAM's [1]: neither fibronectin nor vitronectin promoted angiogenesis
- effect of applied matrix protein on the angiogenic effect of VEGF [2]: did not potentiate
- enhancement of growth factor stimulated angiogenesis [3, 9]: at least 46+/−11%

Molecule: CRRETAWAC
- effect on endothelial cell migration on fibronectin (HUVEC's): interfered
- effect on adhesion to fibronectin [4]: significantly inhibited
- effect on adhesion to fibronectin [5]: significantly inhibited
- IC50 [6]: 60 nM
- effect on adhesion to fibronectin (α5^+ HT29 cells): significantly inhibited
- effect on VEGF angiogenesis ([2]; VEGF stimulated CAM): failed to block
- effect on tumor size [7]: induced tumor regression
- tumors smaller than control treated tumors [7]: 31%
- inhibition of bFGF-induced angiogenesis (blood vessel branch points) ([3]; bFGF stimulated CAM): 90+/−6%

Molecule: CATAERWRC ["scrambled" control peptide]
- effect on adhesion to fibronectin [4]: little effect
- effect on adhesion to fibronectin [5]: little effect
- effect on adhesion to fibronectin (α5^+ HT29 cells): little effect
- effect on tumor size [7]: continued to increase in size
- effect on cell attachment to vitronectin [8]: little effect
- effect on bFGF-induced angiogenesis ([3]; bFGF stimulated CAM): did not inhibit

B1: vitronectin: vitronectin, extracellular matrix protein applied to CAM's (protein)
chain: DQESCKGRCTEGFNVDKKCQCDELCSYYQSCCTDYTAECKPQVTRGDVFTMPEDEYTVYDDGEEKNNATVHEQVGGPSLTSDLQAQSKGNPEQTPVLKPEEEAPAPEVGASKPEGIDSRPETLHPGRPQPPAEEELCSGKPFDAFTDLKNGSLFAFRGQYCYELDEKAVRPGYPKLIRDVWGIEGPIDAAFTRINCQGKTYLFKGSQYWRFEDGVLDPDYPRNISDGFDGIPDNVDAALALPAHSYSGRERVYFFKGKQYWEYQFQHQPSQEECEGSSLSAVFEHFAMMQRDSWEDIFELLFWGRTSAGTRQPQFISRDWHGVPGQVDAAMAGRIYISGMAPRPSLAKKQRFRHRNRKGYRSQRGHSRGRNQNSRRPSRATWLSLFSSEESNLGANNYDDYRMDWLVPATCEPIQSVFFFSGDKYYRVNLRTRRVDTVDPPYPRSIAQYWLGCPAPGHL
- effect on blood vessels / angiogenesis of unstimulated CAM's [1]: neither fibronectin nor vitronectin promoted angiogenesis
- effect of applied matrix protein on the angiogenic effect of VEGF [2]: did not potentiate
- effect of applied matrix protein on bFGF stimulated angiogenesis [3, 9]: no effect

— patent US7056506B2, “Methods for detecting and inhibiting angiogenesis” (The Regents of the University of California, priority 1998, dated 2006)
